{
  "source": "patent US9957230B2",
  "about": "“Synergistic compositions” (Cadila Healthcare Limited, priority 2013, dated 2018)",
  "key": {"[1]": {"system": "db/db mice", "assay": "Antidiabetic activity in db/db mice (studies I and II): non-fasting serum glucose", "assay_type": "in vivo", "details": "Compound (Ia) 0.1 mg/kg; for Serum Glucose (mg/dl) Day 0: Day 0 (pretreatment); for Serum Glucose (mg/dl) Day 12: Day 12, non-fasting; for % Change Vs control: serum glucose day 12 vs vehicle control; for % Change Day 12 vs Day 0: serum glucose", "text": "The in-vivo efficacy for antidiabetic activity was done for (I) and (II) individually with db/db mice of 13-14 weeks of age.\n8. […] 8. The treatment was given oral gavages once daily for 14 days. […]"}, "[2]": {"system": "db/db mice", "assay": "Oral glucose tolerance test in db/db mice (study IV)", "assay_type": "in vivo", "details": "Compound Ia 0.1 mg/kg, Vildagliptin 1 mg/kg, Metformin 100 mg/kg; for % improvement in AUC glucose vs control: Table 19 and text, OGTT after 14 days of treatment", "text": "1. […] 17. The treatment was given oral gavages once daily for 14 days.\nThe OGTT procedure followed is as given below—"}, "[3]": {"details": "Table 9, female db/db mice, Sitagliptin 3 mg/kg p.o. once daily"}, "[4]": {"details": "Table 9, Sitagliptin 3 mg/kg p.o. once daily"}, "[5]": {"details": "Table 11, female db/db mice, Metformin 150 mg/kg p.o. once daily"}, "[6]": {"details": "Table 11, Metformin 150 mg/kg p.o. once daily"}},
  "note": "Counter-ions that a name gives are not always drawn.",
  "data": [
    {"compound": "CCO[C@@H](Cc1ccc(OCCn2c(C)ccc2-c2ccc(SC)cc2)cc1)C(=O)O", "note": "[Compound (Ia), Benzenepropanoic acid, α-ethoxy-4-[2-[2-methyl-5-[4-(methylthio)phenyl]-1H -pyrrol-1-yl]ethoxy]-, magnesium salt]", "values": [
      {"measurement": "Serum Glucose (mg/dl) Day 0", "setting": "[1]; [3]", "value": "407.8 ± 28.9", "unit": "mg/dL"},
      {"measurement": "Serum Glucose (mg/dl) Day 12", "setting": "[1]; [3]", "value": "276.9 ± 39.4", "unit": "mg/dL"},
      {"measurement": "% Change Vs control", "setting": "[1]; [4]", "value": "−32.8 ± 6.0", "unit": "%"},
      {"measurement": "% Change Day 12 vs Day 0", "setting": "[1]; [4]", "value": "−33.0 ± 5.9", "unit": "%"},
      {"measurement": "Serum Glucose (mg/dl) Day 0", "setting": "[1]; [5]", "value": 407.8, "unit": "mg/dL"},
      {"measurement": "Serum Glucose (mg/dl) Day 12", "setting": "[1]; [5]", "value": 276.9, "unit": "mg/dL"},
      {"measurement": "% Change Vs control", "setting": "[1]; [6]", "value": "−32.8", "unit": "%"},
      {"measurement": "% Change Day 12 vs Day 0", "setting": "[1]; [6]", "value": "−33.0", "unit": "%"},
      {"measurement": "reduction in serum glucose", "setting": "[1]; female db/db mice, Sitagliptin 3 mg/kg, Metformin 150 mg/kg", "value": 32.8, "unit": "%"},
      {"measurement": "AUC Glucose", "setting": "[2]; Table 19, OGTT day 14, fasting, glucose load 2 gm/kg", "value": 69613.3, "unit": "mg·min/dL"},
      {"measurement": "% improvement in AUC glucose vs control", "setting": "[2]", "value": "does no show any improvement"},
      {"measurement": "% improvement in AUC glucose vs control", "setting": "[2]; listed as Compound Ia", "value": "−12.0", "unit": "%"}
    ]}
  ]
}
